Results published in US20040214832A1, “Piperazine derivative renin inhibitors” (priority 2003, published 2004).
pIC50: −log10 of the molar value.

target: T1, human renin (Homo sapiens, UniProt P00797); assay: Determination of renin IC50 by tGFP FRET assay; type: biochemical; settings: Human recombinant renin, tandem GFP substrate 650 nM, 60 min incubation with compound, pH 7.4, 11-point curve
T1 sequence (P00797 67-406): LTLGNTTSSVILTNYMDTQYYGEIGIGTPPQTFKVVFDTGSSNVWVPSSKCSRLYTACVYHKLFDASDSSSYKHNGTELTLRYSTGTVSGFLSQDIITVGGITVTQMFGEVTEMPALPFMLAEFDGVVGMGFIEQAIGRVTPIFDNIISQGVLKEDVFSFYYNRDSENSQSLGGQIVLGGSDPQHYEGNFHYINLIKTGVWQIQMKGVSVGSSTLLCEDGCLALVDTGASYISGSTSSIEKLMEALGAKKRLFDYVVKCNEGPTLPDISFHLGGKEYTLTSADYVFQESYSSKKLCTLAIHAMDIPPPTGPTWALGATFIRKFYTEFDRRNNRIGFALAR
Text: Determination of Renin IC50 by tGFP FRET Assay
The tGFP FRET (fluorescence resonance energy transfer) assay utilizes a tandem GFP substrate (60 kDa, Discovery Technologies) containing nine amino acid recognition sequences for human renin flanked by two GFP proteins. The assay is used to determine the ability of a compound to act as an inhibitor of renin enzymatic activity by determination of that concentration of test compound that inhibits by 50% (IC50) the ability of renin to cleave the tandem GFP substrate. The IC50 values are determined over an 11-point curve at concentrations of 100 μM to 1 pM. Each compound concentration used to construct the curve was dependent on renin inhibitor potency. For example, subnanomolar IC50 values were determined over an 11-point curve at concentrations of 10 μM to 1 pM. All other IC50 values were determined over an 11-point curve at concentrations of 100 μM to 0.0065 μM. The concentrations were achieved by diluting a 9.1 nM stock of Human recombinant renin in the appropriate amount of buffer containing 50 mM HEPES, 1 mM EDTA, 1% PEG (8000 MW), 1 mM DTT, 0.1% BSA, pH 7.4 to achieve the final concentration of 50.4 μIU. The tGFP substrate stock solution of 43 μM was diluted with the appropriate amount of the above buffer to obtain the final concentration of 650 nM. In addition, 1 μl of the compound is diluted in dimethylsulfoxide (DMSO) to represent an […] log scale (5% final). The SR renin and compound are added to a 384 capacity plate by an automated robot (BIOMEK). The plate is incubated for 60 minutes; upon completion the tGFP substrate is added.
The IC50 is determined by monitoring the increase in […] at 432/432 nm excitation, 530/475 nm emission with a cutoff at 515/455 nm, in a fluorometric plate reader.

Point of comparison: `COC(=O)CN1C(=O)CCc2ccc(OC[C@H]3CNCC(=O)N3c3ccc(OCCCOCc4ccccc4OC)cc3)cc21` [Example 116, [7-([2R]-1-{4-[3-(2-Methoxybenzyloxy)-propoxy]-phenyl}-6-oxopiperazin-2-ylmethoxy)-2-oxo-3,4-dihydro-2H-quinolin-1-yl]-acetic acid methyl ester], pIC50 8.40. Against it:
- CCOCCNC(=O)c1ccc(N2C(=O)CNC[C@@H]2COc2ccc3ccccc3c2)cc1 [Example 49, N-(2-ethoxyethyl)-4-[(2R)-2-(naphthalen-2-yloxymethyl)-6-oxopiperazin-1-yl]-benzamide] — lower, < 6.00
- COc1ccccc1CCOCCOc1ccc(N2CCNC[C@@H]2COc2ccc3ccccc3c2)cc1 [Example 104] — 2.43 log units lower, 5.97
- COc1ccccc1COCCCOc1ccc(N2C(=O)CNC[C@@H]2COCc2ccccc2OC)cc1 [Example 10, (6R)-6-(2-methoxybenzyloxymethyl)-1-{4-[3-(2-methoxybenzyloxy)-propoxy]-phenyl}-piperazin-2-one] — 2.34 log units lower, 6.06
- COc1ccccc1OCCCOCc1ccc(N2C(=O)CNC[C@@H]2COCc2ccc(F)cc2)cc1 [Example 76, (6R)-6-(4-fluorobenzyloxymethyl)-1-{4-[3-(2-methoxyphenoxy)-propoxymethyl]-phenyl}-piperazin-2-one] — lower, < 6.00
- COc1ccccc1COCCCOc1ccc(N2C(=O)CNC[C@@H]2COc2ncccn2)cc1 [Example 81, (6R)-1-{4-[3-(2-methoxybenzyloxy)-propoxy]-phenyl}-6-(pyrimidin-2-yloxymethyl)-piperazin-2-one] — 3.93 log units lower, 4.47
- COc1ccccc1COCCCOc1c(F)cc(N2C(=O)CNC[C@@H]2COc2ccc3ccccc3c2)cc1F [Example 43, (6R)-1-{3,5-difluoro-4-[3-(2-methoxybenzyloxy)-propoxy]-phenyl}-6-(naphthalen-2-yloxymethyl)-piperazin-2-one] — 2.35 log units lower, 6.05
- COc1ccccc1COCCCOc1ccc(N2C(=O)CNC[C@@H]2COc2ccc3c(c2)N(CCNC(C)=O)CCC3)cc1 [Example 124, N-{2-[7-([2R]-1-{4-[3-(2-Methoxybenzyloxy)-propoxy]-phenyl}-6-oxopiperazin-2-ylmethoxy)-3,4-dihydro-2H-quinolin-1-yl]-ethyl}-acetamide] — 1.06 log units higher, 9.46
- COC(=O)Cn1c(C)cc2cc(OC[C@H]3CNCC(=O)N3c3ccc(OCCCOCc4ccccc4OC)cc3)ccc21 [Example 121, [5-([2R]-1-{4-[3-(2-Methoxybenzyloxy)-propoxy]-phenyl}-6-oxopiperazin-2-ylmethoxy)-2-methyl-indol-1-yl]-acetic acid methyl ester] — within 0.2 log units, 8.22
- COc1ccc(COC[C@H]2CNCCN2c2ccc(OCCCOCc3ccccc3OC)cc2)cc1 [Example 33, (2R)-2-(4-methoxybenzyloxymethyl)-1-{4-[3-(2-methoxy-benzyloxy)-propoxy]-phenyl}-piperazine] — 3.00 log units lower, 5.40
- COc1ccc(COCCCOc2ccc(N3CCNC[C@@H]3COCc3ccc(OC)cc3)cc2)cc1 [Example 65, (2R)-2-(4-methoxybenzyloxymethyl)-1-{4-[3-(4-methoxybenzyloxy)-propoxy]-phenyl}-piperazine] — lower, < 6.00
- COc1ccccc1COCCCOc1ccc(N2C(=O)CNC[C@@H]2COc2ccc3ccccc3c2)cc1C [Example 103, (6R)-1-{4-[3-(2-methoxybenzyloxy)-propoxy]-3-methyl-phenyl}-6-(naphthalene-2-yloxymethyl)-piperazin-2-one] — 1.62 log units lower, 6.78
- COc1ccccc1COCCCOc1ccc(N2C(=O)CNC[C@@H]2COCc2ccc(Cl)c(Cl)c2)cc1 [Example 2, (6R)-6-(3,4-dichlorobenzyloxymethyl)-1-{4-[3-(2-methoxybenzyloxy)-propoxy]-phenyl}-piperazin-2-one] — 1.66 log units lower, 6.74
- COc1ccccc1COCCCOc1ccc(N2C(=O)CNC[C@H]2COc2ccc3ccccc3c2)cc1 [Example 1, (6S)-1-{4-[3-(2-methoxybenzyloxy)-propoxy]-phenyl}-6-(naphthalen-2-yloxymethyl)-piperazin-2-one] — 1.22 log units lower, 7.18
- COc1ccccc1COCCCOc1ccc(N2C(=O)CNC[C@@H]2COc2ccc3ccccc3c2)cc1C(=O)O [Example 98, 2-[(5R)-3-(2-methoxybenzyloxy)-propoxy]-5-[2-(naphthalene-2-yloxymethyl)-6-oxopiperazin-1-yl]-benzoic acid] — lower, < 6.00
- COc1ccc2ccc(OC[C@H]3CNCC(=O)N3c3ccc(OCCCOCc4ccccc4OC)cc3)cc2c1 [Example 105, (6R)-1-{4-[3-(2-methoxybenzyloxy)-propoxy]-phenyl}-6-(7-methoxynaphthalen-2-yloxymethyl)-piperazin-2-one] — 1.75 log units lower, 6.65
- COc1ccccc1COCCCOc1ccc(N2C(=O)CNC[C@@H]2COCc2cccnc2)cc1 [Example 23, (6R)-1-{4-[3-(2-methoxybenzyloxy)-propoxy]-phenyl}-6-(pyridin-3-ylmethoxymethyl)-piperazin-2-one] — 1.47 log units lower, 6.93
- COc1ccccc1COCCCOc1ccc(N2C(=O)CNC[C@@H]2CNC(=O)c2ccc3ccccc3c2)cc1 [Example 85, naphthalene-2-carboxylic acid ([2R]-1-{4-[3-(2-methoxybenzyloxy)-propoxy]-phenyl}-6-oxopiperazin-2-ylmethyl)-amide] — lower, < 6.00
- COc1ccc(COC[C@H]2CNCCN2c2ccc(OCCCOCc3ccc(Cl)cc3)cc2)cc1 [Example 62, (2R)-1-{4-[3-(4-chlorobenzyloxy)-propoxy]-phenyl}-2-(4-methoxybenzyloxymethyl)-piperazine] — 4.04 log units lower, 4.36
- COc1ccccc1COCCCOc1ccc(N2C(=O)CNC[C@@H]2COCc2ccccc2C)cc1 [Example 21, (6R)-1-{4-[3-(2-methoxybenzyloxy)-propoxy]-phenyl}-6-(2-methylbenzyloxymethyl)-piperazin-2-one] — lower, < 6.00
- COc1ccccc1COCCCOc1ccc(N2C(=O)CNC[C@@H]2COCc2ccc(C#N)cc2)cc1 [Example 28, (6R)-4-(1-{4-[3-(2-methoxybenzyloxy)-propoxy]-phenyl}-6-oxopiperazin-2-ylmethoxymethyl)-benzonitrile] — lower, < 6.00
- COc1ccc(COC[C@H]2CNCCN2c2ccc(COCCCOc3ccccc3OC)cc2)cc1 [Example 70, (2R)-2-(4-methoxybenzyloxymethyl)-1-{4-[3-(2-methoxyphenoxy)-propoxymethyl]-phenyl}-piperazine] — lower, < 6.00
- COCCCN1C(=O)COc2ccc(SC[C@H]3CNCC(=O)N3c3ccc(OCCCOCc4ccccc4OC)cc3)cc21 [Example 128, 6-([2R]-1-{4-[3-(2-Methoxybenzyloxy)-propoxy]-phenyl}-6-oxo-piperazin-2-ylmethylsulfanyl)-4-(3-methoxypropyl)-4H-benzo[1,4]oxazin-3-one] — 1.34 log units higher, 9.74
- CC(=O)NCCN1CCCc2ccc(OC[C@H]3CNCC(=O)N3c3ccc(OCCCOCc4ccccc4F)cc3)cc21 [Example 126, N-{2-[7-([2R]-1-{4-[3-(2-Fluorobenzyloxy)-propoxy]-phenyl}-6-oxopiperazin-2-ylmethoxy)-3,4-dihydro-2H-quinolin-1-yl]-ethyl}-acetamide] — within 0.2 log units, 8.30
- COc1ccccc1COCCCOc1ccc(N2C(=O)CNC[C@@H]2CNC(=O)c2ccccc2)cc1 [Example 84, N-([2R]-1-{4-[3-(2-methoxy-benzyloxy)-propoxy]-phenyl}-6-oxopiperazin-2-ylmethyl)-benzamide] — lower, < 6.00
